Results taken from patent US20050203119A1, “Dihydropyridine compounds for treating or preventing metabolic disorders” (priority 2003, published 2005).

Assays:
primary rat hepatocytes = assay: In vitro cytotoxicity study on primary rat hepatocytes (MTS); format: cell-based; settings: Hepatocyte, 20 hours treatment with 0.4, 2, 10 and 50 μM, absorbance at 490 nm, read-out: Average EC50 (hepatocytes from at least 2 rats)
Description: Male SD rats having body weights of approximately 200 g were used for the study. Hepatocytes were freshly isolated and seeded with 15,000 cells/well in 96 wells coated with 100 μl collagen. The hepatocytes were cultured for 3-4 hours with HCM Bulletkit medium (Clonetics #CC-3198) then treated with 0.4 μM, 2 μM, 10 μM and 50 μM of a test compound for 20 hours. Flepatocytes were then incubated with MTS reagent (Promega #G5421) for 2-3 hours and absorbance in each well at […] was measured to determine the number of living cells in each well (the absorbance at 490 nm is directly proportional to the number of living cells in the well). The EC50 for each test compound was calculated with the Excel Xlfit wizard program based on the optical density values compared with vehicle treated cells.

C57BLKS/J-m+/+Lepr db = assay: Glucose reduction, Compound 36 in combination with rosiglitazone, db/db mice, 6 days (Example 117); format: in vivo, mouse; settings: for Serum Glucose % Normalized Reduction: relative to vehicle
Description: C57BLKS/J-m+/+Lepr db were obtained from the Institute for Animal Reproduction (IAR, Japan), and randomized for equivalent mean blood glucose on day 0 (n=8/group). One group served as the vehicle control (0.5% methyl cellulose). […] Group 3 received 0.5 mg/kg rosiglitazone. […] All agents were administered once daily for 6 consecutive days starting on day 1. […] Post-treatment serum glucose value was expressed as percent pre-treatment from respective pre-treatment values, and percent reduction relative to vehicle control was calculated by subtracting from the percent pre-treatment of vehicle control.

db/db mice = assay: Combination studies of rosiglitazone or metformin with Compound 39, 7 days (Example 121); format: in vivo, mouse
Description: Serum glucose levels in the pre-and post-treatment were determined enzymatically (Mutaratase-GOD). Post-treatment serum glucose values were expressed in percentage of respective pre-treatment values. Percentage reductions were expressed in percentage of pre-treatment values of test substance relative to percentage of respective pre-treatment values of vehicle. All percentages were calculated and unpaired; Student's t test was then applied to establish significant difference between the test compound-treated and vehicle control groups. Differences are considered significant at P<0.05.

male ob/ob mice = assay: Oral glucose tolerance test in glucose-loaded ob/ob mice (Example 114, FIG. 1); format: in vivo, mouse
Description: Blood glucose was measured at 0, 30, 120 and 240 min post-glucose loading. Metformin and rosiglitazone were used as references.

Male SD rats = settings: rat, in vivo
Description: Male SD rats weighing 350-420 g were anesthetized with 2-3% isoflurane. The femoral artery and vein were catheterized and connected to a mean arterial blood pressure (MAP) and heart rate (HR) monitor and a continuous intravenous infusion pump. Under anesthesia, MAP and HR were recorded 10-20 minutes prior to and during the continuous intravenous infusion of test compounds for 60-70 minutes. The infusion rate, 0.14-0.16 ml/kg/minute, was determined on the basis of vehicle tolerance. The infusion doses, 1.0-1.25 mg/kg/minute, were selected, depending upon the solubility of the compound and effects on MAP and HR of the positive control compounds at the lethal dose. The maximal effective dose or lethal dose of test compounds were determined accordingly.

[1] = tested on: C57BLKS/J-m+/+Lepr db male animals; assay: Glucose reduction by Compound 9 in db/db mouse model (Example 112); format: in vivo; settings: 3.5 hours after administration
Description: C57BLKS/J-m+/+Lepr db male animals (8 weeks old) were purchased from the Jackson Laboratory (Bar Harbor, Me.) in this study. All animals were acclimated for at least one week, and randomized for equivalent mean blood glucose on day 0. Animals were divided into either vehicle or treatment groups (n=8/group). Compound 9 was formulated in 0.5% methylcellulose (ps400) and administered by oral gavage at 50 mg/kg once daily for 7 consecutive days. Blood glucose was monitored using One Touch Basic glucose monitor (Abbott) 3.5 hours after administration of test compound on day 3 and 7.

[2] = tested on: NIDDM male mice (C57BLKS/J-m+/+Lepr db); assay: 7 day baseline glucose test in db/db mice (Example 119); format: in vivo, mouse; settings: for Serum Glucose % Pre-Treatment Baseline: 3 hours after dose
Description: Non-insulin dependent diabetic mellitus (NIDDM) male mice (C57BLKS/J-m+/+Lepr db), weighing 50±5 g and 9-10-week old, were used. The animals were housed in Individually Ventilated Cages Racks (IVC Racks) throughout the experiment and all animals were allowed free access to sterilized Lab chow and sterilized distilled water. Compounds 39, 41 and 64 at 50 mg/kg as well as vehicle (0.5% Methylcellulose) were administered orally once daily for 7 consecutive days to test animals after the first blood sampling (pre-treatment). The post-treatment blood samples were withdrawn from the orbital sinus at 3 hours after administration of daily dose on day 3 and on day 7. Serum glucose levels in the pre- and post-treatment were determined by enzymatic (Mutaratase-GOD) methods. Post-treatment serum glucose values were expressed in percentage of respective pre-treatment values. Percentage reductions were expressed in percentage of pre-treatment values of test substance relative to percentage of pre-treatment values of vehicle. All percentages were calculated and unpaired; Student's t test was then applied to establish significant difference between the test compound-treated and vehicle control groups. Differences are considered significant at P<0.05.

[3] = tested on: male db/db mice (BKS.Cg-m+/+Lepr db/J); assay: Intraperitoneal glucose tolerance test (IPGTT) in db/db mice (Example 122, FIGS. 3 and 5); format: in vivo, mouse; settings: Mus musculus, po, 0.75 h, read-out: Ave. % Change in Glucose Intolerance at +45 min
Description: Six to eight week old, male db/db mice (BKS.Cg-m+/+Lepr^db/J; stock number 000642), homozygous for a mutation in the gene encoding the leptin receptor, were purchased from The Jackson Laboratory (Bar Harbor, Me. USA). Animals were singly housed in conventional caging on a 12 hr/12 hr light/dark cycle, acclimated for at least five days prior to use and fed normal laboratory chow ad libitum between experiments. Studies were conducted with animals between seven and fourteen weeks of age. Animals were used for a maximum of five consecutive studies, with a minimum recovery period of five days between studies.
To perform an IPGTT or OGTT, db/db mice were fasted overnight beginning on day 0 at −17.5 to −18.5 hrs relative to the glucose dose on day 1 (all time points below are stated relative to the time of an intraperitoneal or oral glucose dose on day 1). At −4.5 hrs, animals were weighed, blood was collected by tail vein lancing and fasted blood glucose levels determined using a hand-held glucometer (MediSense Precision Xtra or LifeScan OneTouch Ultra). Animals were randomized into dosing groups of 6-7 animals, with each group having a similar average fasted blood glucose level. At −3 hr, animals were dosed with vehicle alone, a test compound or metformin by oral gavage at 5 ml/kg body weight. […] Blood glucose levels were determined as above at −45 min and +45 min, and also +90 min and/or +150 min (see FIG. 3 and the Table in this section). Alternatively, blood glucose levels were determined at −30 min, +30 min, +60 min and +120 min (see FIGS. 4 and 5).
Compound doses were adjusted to be the molar equivalents of 50 mg/kg of Compound 39. The percent change in blood glucose between −45 min and a time point, y, after glucose dosing (e.g., +45 min, +150 min, ect.) was calculated for each animal using formula 1: [formula]
The percent change in blood glucose between −45 min and a time point, y, after glucose dosing was calculated for each animal using formula 1.
Average percent change in glucose intolerance was calculated using Formula 2, as noted in the table below. […]

[4] = Day 3, rosiglitazone 0.5 mg/kg orally daily
[5] = Day 7, rosiglitazone 0.5 mg/kg orally daily
[6] = Day 3, 50 mg/kg orally once daily
[7] = Day 7, 50 mg/kg orally once daily
[8] = Day 3, metformin 150 mg/kg orally daily
[9] = Day 7, metformin 150 mg/kg orally daily

CCOC(=O)C1=C(COCCN)NC2=C(C(=O)CC(C)(C)C2)C1c1ccc(C)o1 (stereo not shown) [Compound 206, 2-(2-Amino-ethoxymethyl)-7,7-dimethyl-4-(5-methyl-furan-2-yl)-5-oxo-1,4,5,6,7,8-hexahydro-quinoline-3-carboxylic acid ethyl ester]
EC50 (primary rat hepatocytes): > 50 µM

CN(CCOc1ccc(CC2SC(=O)NC2=O)cc1)c1ccccn1 (stereo not shown) [rosiglitazone, reference compound]
Serum Glucose % Pre-Treatment Baseline (C57BLKS/J-m+/+Lepr db; Day 3, rosiglitazone 0.5 mg/kg): 90.3 ± 3.1%
Serum Glucose % Normalized Reduction (C57BLKS/J-m+/+Lepr db; Day 3, rosiglitazone 0.5 mg/kg): (15.3) %
Serum Glucose % Pre-Treatment Baseline (C57BLKS/J-m+/+Lepr db; Day 6, rosiglitazone 0.5 mg/kg): 79.1 ± 1.9%
Serum Glucose % Normalized Reduction (C57BLKS/J-m+/+Lepr db; Day 6, rosiglitazone 0.5 mg/kg): 28.8%
Serum Glucose % Normalized Reduction (C57BLKS/J-m+/+Lepr db; Day 6, rosiglitazone 0.5 mg/kg, listed as Rosiglitazone): (28.8) %
Serum Glucose % Pre-Treatment Baseline (db/db mice; [4]): 72.2 ± 6.5%
serum glucose % Reduction relative to vehicle (db/db mice; [4]): (22.4) %
Serum Glucose % Pre-Treatment Baseline (db/db mice; [5]): 61.2 ± 6.6%
serum glucose % Reduction relative to vehicle (db/db mice; [5]): (39.5) %
blood glucose after oral glucose loading (male ob/ob mice; rosiglitazone 1 mg/kg (FIG. 1), 4 hours post-glucose loading): ~300 mg/dL

CCOC(=O)C1=C(COCCN)NC(C)=C(C(=O)OC)C1c1ccccc1Cl (stereo not shown) [Amlodipine, amlodipine, reference compound]
Lethal Dose (Male SD rats): ˜12.7 mg/kg

CCOC(=O)C1=C(COCCN)NC2=C(C(=O)CC(C)(C)C2)C1c1ccccc1OC (stereo not shown) [Compound 16, 2-(2-Amino-ethoxymethyl)-4-(2-methoxy-phenyl)-7,7-dimethyl-5-oxo-1,4,5,6,7,8-hexahydro-quinoline-3-carboxylic acid ethyl ester]
EC50 (primary rat hepatocytes): > 50 µM

CCOC(=O)C1=C(COCCN)NC2=C(C(=O)CC(C)(C)C2)C1c1ccccn1 (stereo not shown) [Compound 9, 2-(2-amino-ethoxymethyl)-7,7-dimethyl-5-oxo-4-pyridin-2-yl-1,4,5,6,7,8-hexahydro-quinoline-3-carboxylic acid ethyl ester]
EC50 (primary rat hepatocytes): > 50 µM
percent normalized reduction in blood glucose relative to vehicle control ([1]; day 3, 50 mg/kg oral gavage once daily): 13.6%
percent normalized reduction in blood glucose relative to vehicle control ([1]; day 7, 50 mg/kg oral gavage once daily): 21.1%

CC1(C)CC(=O)C2=C(C1)NC(COCCN)=C(C#N)C2c1ccccc1Cl (stereo not shown) [Compound 41, 2-(2-Amino-ethoxymethyl)-4-(2-chloro-phenyl)-7,7-dimethyl-5-oxo-1,4,5,6,7,8-hexahydro-quinoline-3-carbonitrile]
serum glucose % Reduction relative to vehicle [2, 6]: (2) %
Serum Glucose % Pre-Treatment Baseline [2, 6]: 93.3%
serum glucose % Reduction relative to vehicle [2, 7]: (6) %
Serum Glucose % Pre-Treatment Baseline [2, 7]: 94.1%

CN(C)C(=N)N=C(N)N [metformin]
Serum Glucose % Pre-Treatment Baseline (db/db mice; [8]): 68.5 ± 3.7%
serum glucose % Reduction relative to vehicle (db/db mice; [8]): (26.4) %
Serum Glucose % Pre-Treatment Baseline (db/db mice; [9]): 72.2 ± 5.7%
serum glucose % Reduction relative to vehicle (db/db mice; [9]): (28.7) %
change in vivo at 150 mg/kg [3]: -48.7%
blood glucose after oral glucose loading (male ob/ob mice; metformin 100 mg/kg (FIG. 1), glucose 3 g/kg, fasted ob/ob mice): approximately 200 mg/dl

CCOC(=O)C1=C(C)NC2=C(C(=O)CC(C)(C)C2)C1c1cccnc1 (stereo not shown) [Compound 202, 2,7,7-Trimethyl-4-(pyrid-3-yl)-5-oxo-1,4,5,6,7,8-hexahydro-quinoline-3-carboxylic acid ethyl ester]
EC50 (primary rat hepatocytes): > 50 µM

CCOC(=O)C1=C(COCCN)NC2=C(C(=O)CC(C)(C)C2)[C@H]1c1cccnc1 [39 R-enantiomer, (+)-(R)-2-(2-Amino-ethoxymethyl)-7,7-dimethyl-5-oxo-4-pyridin-3-yl-1,4,5,6,7,8-hexahydro-quinoline-3-carboxylic acid ethyl ester]
EC50 (primary rat hepatocytes): > 50 µM

CCOC(=O)C1=C(COCCN)N(C)C2=C(C(=O)CC(C)(C)C2)C1c1cccnc1 (stereo not shown) [Compound 66, 2-(2-Amino-ethoxymethyl)-1,7,7-trimethyl-5-oxo-4-pyridin-3-yl-1,4,5,6,7,8-hexahydro-quinoline-3-carboxylic acid ethyl ester]
EC50 (primary rat hepatocytes): > 50 µM

CCOC(=O)C1=C(COCCN)NC2=C(C(=O)CC(C)(C)C2)C1c1ccccc1F (stereo not shown) [Compound 12, 2-(2-amino-ethoxymethyl)-4-(2-fluoro-phenyl)-7,7-dimethyl-5-oxo-1,4,5,6,7,8-hexahydro-quinoline-3-carboxylic acid ethyl ester]
EC50 (primary rat hepatocytes): > 50 µM

CCOC(=O)C1=C(COCCN)NC2=C(C(=O)CC(C)(C)C2)[C@@H]1c1ccccc1Cl [Compound 36, S-(−)-2-(2-amino-ethoxymethyl)-4-(2-chloro-phenyl)-7,7-dimethyl-5-oxo-1,4,5,6,7,8-hexahydro-quinoline-3-carboxylic acid ethyl ester; complex with benzenesulfonic acid]
Serum Glucose % Pre-Treatment Baseline (C57BLKS/J-m+/+Lepr db; Day 3, Compound 36 10 mg/kg): 103.0 ± 2.4%
Serum Glucose % Normalized Reduction (C57BLKS/J-m+/+Lepr db; Day 3, Compound 36 10 mg/kg): (2.6) %
Serum Glucose % Pre-Treatment Baseline (C57BLKS/J-m+/+Lepr db; Day 3, Compound 36 25 mg/kg): 100.3 ± 2.8%
Serum Glucose % Normalized Reduction (C57BLKS/J-m+/+Lepr db; Day 3, Compound 36 25 mg/kg): (5.3) %
Serum Glucose % Pre-Treatment Baseline (C57BLKS/J-m+/+Lepr db; Day 6, Compound 36 10 mg/kg): 100.7 ± 4.6%
Serum Glucose % Normalized Reduction (C57BLKS/J-m+/+Lepr db; Day 6, Compound 36 10 mg/kg): (7.2) %
Serum Glucose % Pre-Treatment Baseline (C57BLKS/J-m+/+Lepr db; Day 6, Compound 36 25 mg/kg): 99.7 ± 5.4%
Serum Glucose % Normalized Reduction (C57BLKS/J-m+/+Lepr db; Day 6, Compound 36 25 mg/kg): (8.2) %
blood glucose after oral glucose loading (male ob/ob mice; 25 mg/kg orally, glucose 3 g/kg, fasted ob/ob mice): approximately 200 mg/dl

CCOC(=O)C1=C(COCCN)NC2=C(C(=O)CC(C)(C)C2)C1c1ccco1 (stereo not shown) [Compound 96, 2-(2-Amino-ethoxymethyl)-4-furan-2-yl-7,7-dimethyl-5-oxo-1,4,5,6,7,8-hexahydro-quinoline-3-carboxylic acid ethyl ester]
EC50 (primary rat hepatocytes): > 50 µM

CCOC(=O)C1=C(COCCN)NC2=C(C(=O)CC(C)(C)C2)C1c1ccccc1O (stereo not shown) [Compound 64, 2-(2-Amino-ethoxymethyl)-4-(2-hydroxy-phenyl)-7,7-dimethyl-5-oxo-1,4,5,6,7,8-hexahydro-quinoline-3-carboxylic acid ethyl ester]
EC50 (primary rat hepatocytes): > 50 µM
serum glucose % Reduction relative to vehicle [2, 6]: (10) %
Serum Glucose % Pre-Treatment Baseline [2, 6]: 85.9%
serum glucose % Reduction relative to vehicle [2, 7]: (12) %
Serum Glucose % Pre-Treatment Baseline [2, 7]: 88.6%

CC1=C(C#N)C(C2CC2)C2=C(CC(C)(C)CC2=O)N1 (stereo not shown) [Compound 222, 2,7,7-Trimethyl-4-cyclopropyl-5-oxo-1,4,5,6,7,8-hexahydro-quinoline-3-carbonitrile]
EC50 (primary rat hepatocytes): > 50 µM
